# Assay: Pharmacokinetics study of mice
# Assay type: in vivo
# Conditions: mouse, plasma; male CD-1 mice, 2.5 mpk oral administration vs 0.5 mpk intravenous injection
# From the text: The purpose of this experiment was to study the pharmacokinetics of the test compound in the plasma of male CD-1 mice after intravenous injection and oral administration.
# The animals were randomly divided into two groups with 2 males in each group. The compounds were formulated into prescribed preparations. Intravenous formulations were formulated with 5% DMSO/95% (6% hydroxypropyl-β-cyclodextrin) to give a clear solution, and oral preparations were formulated with 0.1% Tween80/0.5% HPMC aqueous solution to give a homogeneous suspension.
# Whole blood samples were collected from the saphenous vein of the animals 5 minutes, 15 minutes, 30 minutes, 1 hour, 2 hours, 4 hours, 8 hours, 12 hours, and 24 hours after administration. The whole blood sample was added to the centrifuge tube containing anticoagulant, and centrifuged at 3200 g for 10 minutes at 4° C. The supernatant of plasma was taken, frozen quickly on dry ice, and then stored in a −70±10° C. refrigerator until LC-MS/MS analysis.
# WinNonlin™ Version 6.3.0 (Pharsight, Mountain View, Calif.) pharmacokinetic software was used to process the plasma drug concentration data of the compounds with a non-compartmental model. The peak concentration (Cmax), peak time (Tmax) and quantifiable end time were obtained directly from the blood drug concentration-time profile. […]
structure (smiles),measurement,value
CCN1CCN(Cc2cc(F)c(NC(=O)Cc3ccc(-c4cnc5cc(OC)c(OC)cc5c4)nc3)cc2C(F)(F)F)CC1 [Compound 1],bioavailability,48.9%

# — US12565481B2, “6,7-dimethoxy-3-(pyridin-2-yl)quinoline compounds for inhibiting RET” (Guangzhou Baiyunshan Pharmaceutical Holdings Co., Ltd. …, priority 2020, dated 2026)
